O=C(O)c1ccccc1
solubility (mole fraction)
Conditions | in chloroform | in cyclohexane | in ethanol | in n-heptane | in n-pentane | in toluene
278.15 K | 0.074 | – | 0.128 | 0.005 | 0.004 | 0.035
283.15 K | 0.086 | 0.006 | 0.139 | 0.006 | 0.005 | 0.043
293.15 K | 0.114 | 0.009 | 0.166 | 0.01 | 0.007 | 0.062
303.15 K | 0.151 | 0.015 | 0.196 | 0.015 | 0.011 | 0.089
313.15 K | 0.196 | 0.025 | 0.234 | 0.022 | – | 0.128
323.15 K | 0.253 | 0.039 | 0.276 | 0.033 | – | 0.178

Reference: BigSolDB 2.1
